Here are results for one compound from patent US9820487B2, “Abscinazole” (NATIONAL UNIVERSITY CORPORATION SHIZUOKA UNIVERSITY, priority 2014, dated 2017).

In experiment [1] the target is T1, ent-kaurene oxidase CYP701A6 (Oryza sativa subsp. japonica, UniProt Q5Z5R4).
T1 sequence (Q5Z5R4 1-505): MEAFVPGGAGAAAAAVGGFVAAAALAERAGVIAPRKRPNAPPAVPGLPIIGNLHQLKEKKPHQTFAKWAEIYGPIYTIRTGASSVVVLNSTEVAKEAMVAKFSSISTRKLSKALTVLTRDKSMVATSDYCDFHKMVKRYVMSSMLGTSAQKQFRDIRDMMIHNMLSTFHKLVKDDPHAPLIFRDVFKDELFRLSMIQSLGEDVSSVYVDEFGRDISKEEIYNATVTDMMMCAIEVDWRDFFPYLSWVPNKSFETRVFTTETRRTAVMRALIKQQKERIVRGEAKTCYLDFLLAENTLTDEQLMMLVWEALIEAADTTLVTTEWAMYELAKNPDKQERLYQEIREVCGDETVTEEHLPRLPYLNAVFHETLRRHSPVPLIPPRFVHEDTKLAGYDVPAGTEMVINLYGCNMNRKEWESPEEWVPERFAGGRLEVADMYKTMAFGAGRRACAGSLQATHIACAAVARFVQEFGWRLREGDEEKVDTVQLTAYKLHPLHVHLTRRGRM
The experiment in a line: Ent-kaurene oxidase CYP701A6 inhibition test. In kind it is biochemical. To be noted: CYP701A6 + NADPH-P450 reductase ATR2, substrate ent-kaurene, 30° C. 30 minutes; IC50 calculated from two concentrations. As to the method: To a 1.5 mL microtube, 8 μL of an aqueous solution of 500 μM ent-kaurene as a substrate in 45% cyclodextrin and 8μL of a solution of the sample in dimethylformamide were put. 10 μL of 2.32 μM ent-kaurene oxidase CYP701A6 and 10 μL of 4.6 unit/mL NADPH-P450 reductase ATR2, heated at 30° C. for 5 minutes in advance, were added thereto. 304 μL of ultra-pure water, 40 μL of 500 mM KPB and 20 μL of an aqueous solution of 20 mM NADPH, heated at 30° C. for 10 minutes in advance, were added thereto thereby starting the enzyme reaction. The reaction was carried out at 30° C. for 30 minutes at a rotation speed of 1000 rpm and 100 μL of 1 M hydrochloric acid was added thereto thereby terminating the reaction. 5 μL of 10 μM abietic acid as the internal standard was added thereto, and the solution was extracted with 400 μL of ethyl acetate. The resultant was dried over sodium sulfate and subsequently concentrated under reduced pressure. 50 μL of methanol and 5 μL of 2 M trimethyl silyldiazomethane were added thereto to methylate carboxylic acid and the resultant was thy-solidified using nitrogen. The solidified product was dissolved in 150 μL of hexane and 1 μL of the resultant solution was subjected to a GC-MS analysis to detect the enzyme metabolite ent-kaurene acid. The CYP701A6 inhibition rate of the samples was calculated in accordance with the following formula (4). Note that the peak area of ent-kaurene acid was calculated from the peak area of m/z 273 and that ent-kaurene acid was identified from the area ratio of m/z 257, 213. The peak area of abietic acid was calculated from the area of m/z 256, and abietic acid was identified from the area ratio of m/z 316. Note that dimethylformamide was used for the control in place of the sample solution. Each sample was tested with two different concentrations to act late the 50% inhibition concentration (IC50) based on the enzyme inhibition rates thereof.
Enzyme inhibition rate (%)={1-(Ent-kaurene acid peak area of each sample/Abietic acid peak area of each sample/(Ent-kaurene acid peak area of control/Abietic acid peak area of control }×100 . . . (4)

Experiment [2] concerns seeds of thale cress (Arabidopsis thaliana, Col-0). The experiment is described as follows: Thale cress seed germination inhibition test (2). In kind it is in vivo. The conditions noted are these: 120 hours after seed plantation (FIG. 3). As to the method: Seeds of thale cress (Arabidopsis thaliana, Col-0) were immersed in […] an aqueous solution of 70% ethanol for 30 minutes, subsequently in 500 μL of 100% ethanol for 1 minute, washed three times in 1 mL of distilled water, then immersed in distilled water and, in a dark place, verbalized at 4° C. for 3 days. A solution of the sample in methanol and a solution of ABA in methanol were put in a 1.5 mL microtube, and methanol was removed therefrom under reduced pressure. An aqueous solution of 0.5% agar (containing 1/2 MS medium inorganic salts) at 70° C. was added thereto, followed by stirring the resultant. The obtained solution was placed in a 96-well plate to provide the medium containing the sample. 20 to 30 vernalized seeds of thale cress were planted in each well and cultured at 22° C. under continuous light to monitor the number of seeds germinated over time. The germination rate was calculated in accordance with the following formula (1). Note that the medium prepared using methanol in the same manner as above was used as an untreated control and a germination rate of 100% was achieved 72 hours later from the seed plantation. Germination rates 72 hours later from the seed plantation are shown in FIG. 1 and initial growth conditions of thale cress 120 hours later are shown in FIG. 2.
Germination rate (%)=Number of seeds germinated/Number of seeds planted×100 . . . (1) […]

For `COCCOCCOCCOCC#Cc1cccc(/C=C(\[C@@H](O)C(C)(C)C)n2cncn2)c1` [Example 1 (−) Form, (−)-(S)-(E)-1-(3-(2,5,8,11-tetraoxatetradec-13-yn-14-yl)phenyl)-4,4-dimethyl-2-(1H-1,2,4-triazol-1-yl)pent-1-en-3-ol], the potency estimated from few doses in experiment [1] was 780 nM. The “seed germination inhibition compared with (−) form of Comparative Example 1” value in experiment [2] is recorded as “can inhibit the seed germination even in lower concentrations”.
